The record followed here is US4689344A, “Long-chain α,ω-dicarboxylic acids and derivatives thereof and pharmaceutical compositions containing them” (Epis S.A., priority 1981, dated 1987).

Molecules are shown by their SMILES. “And” between values parts separate entries of the source, which are not always exact repeats. Identical values can stand only once.

In one data set the test system is serum lipoprotein. Kind of data set: Serum lipoprotein profile. The format is in vivo, rat. Here is the method: (§1) Rats starved for 48 hours were fed a high carbohydrate, fat-free diet supplemented with 0.25% of the active compound of Example 5 for 3 days ad libitum.
The next data set concerns liver triglyceride. The data set can be described thus: Liver triglyceride content of rats fed carbohydrate-rich diet. The class given is in vivo, rat. The settings on record: for Reduction in liver triglyceride content (FIG. 4): carbohydrate-rich diet, compared to control group=100%.
Data set [1] relates to serum lipids. Kind of data set: Serum lipids in rats fed high carbohydrate, fat-free diet. The class given is in vivo, rat. Here is the method: (§2) Rats that have previously been starved for 48 hours, were meal-fed or fed ad libitum a high carbohydrate, fat-free diet for 3-5 days, the diet being supplemented with the active compounds of formula (I) at dosages of 25-250 mg per Kg body weight per day. The biological effects in-vivo were evaluated by following the rate of incorporation of injected radioactive precursors (mainly ^3 H2 O) into liver and adipose tissue lipids and comparing the results observed with those obtained from groups of non-treated rats ("control groups"). Dose-response curves were plotted.
The hypolipidemic effect was followed by measuring the triglycerides and cholesterol content in serum of treated rats as compared to non-treated rats.
Rats starved for 48 hours were fed a high carbohydrate, fat-free diet ad libitum for 3 or 5 days, supplemented with the active compound of Example 4 at the proportions shown in the following Table III. The serum lipids were determined in the treated rats and compared to a non-treated control group.
as §1

In data set [2] the test system is oxidation of glucose, palmitate or acetate to CO2. The data set can be described thus: Oxidation of glucose, palmitate or acetate to CO2 in vivo. The arrangement: species or system rat. The settings on record: rats, additional experiments.
Data set [3] concerns serum lipids. Kind of data set: Serum triglyceride and cholesterol levels in Psamomys Obesus. The class given is in vivo. Conditions: Table VI, young animals, 0.1% in diet, 140 days, n = 7. Here is the method:
(§3) Psamomys Obesus were fed "Amrod 935" Purina Chow diet supplemented with 0.1% of the active compound of Example 4, ad libitum, for periods of 80 or 140 days. The biological effects of the active compound in vivo were evaluated as reported in the following experiments.
Groups of young and old Psamomys were fed the above described diet for 140 and 80 days, respectively, whereafter the serum triglyceride and cholesterol levels were determined.

A short description of a further data set: LD50 in rats (p.o.). Conditions: rat, in vivo, po.
For another data set, the system named is serum insulin. Kind of data set: Serum insulin levels in diabetic Psamomys Obesus. The format is in vivo. The settings on record: non-treated diabetic animals 40-200 uu/ml.
Data set [4] relates to GT of non-diabetic Psamomys. Kind of data set: Effect on GT of non-diabetic Psamomys. The format is in vivo.
Data set [5] has as its system diabetes induced by steptozocin. Kind of data set: Effect on diabetes induced by steptozocin in rats. The format is in vivo, rat.
In data set [6] the test system is neutral fat in liver and adipose tissue and liver cholesterol. The data set can be described thus: 3H2O incorporation into neutral fat in liver and adipose tissue and into liver cholesterol in vivo. The arrangement: species or system rat. Here is the method: as §2
Incorporation of ^3 H2 O into neutral fat in liver and adipose tissue and into liver cholesterol in vivo.
^3 H2 O incorporation into liver and adipose tissue lipids in vivo was tested in rats fed a high carbohydrate diet ad libitum for three days, supplemented with varying proportions (in percent of the diet) of the active compounds of Examples 4, 5 and 9. ^3 H2 O was then administered to the animals and the rates of incorporation of tritium (in μmole/gr/60 min) into various lipid fractions in liver and adipose tissue were determined and compared to the tritium incorporation under identical conditions in the control groups of rats.

A further data set has as its system glucose tolerance. The data set can be described thus: Glucose tolerance test (GTT) in diabetic Psamomys Obesus. Conditions: for Sum of glucose values at 0, 1, 2, 3h, Treatment: 0.1% in diet 30-70 days; for Sum of glucose values at 0, 1, 2, 3h, Elimination of Treatment: after return to normal diet. The format is in vivo. The arrangement: Sum of glucose values at 0, 1, 2, 3h, Treatment / Sum of glucose values at 0, 1, 2, 3h, Elimination of Treatment: unit not given here. The protocol: as §3
Six Psamomys Obesus fed Purina Chow diet ad libitum were selected for their diabetic trait by following their glucose tolerance test (GTT). The selected animals were then treated by feeding the same Purina diet supplemented with 0.1% of the active compound of Example 4 for periods varying between 30-70 days. The GTT was followed periodically throughout this period, as well as for 50 more days after the drug-supplemented diet had been replaced with the normal diet. A diagram of the GTT curves obtained with one representative animal is shown in FIG. 6 of the attached drawings. The GTT values for all six animals are shown in the following Table VIII as the sum of the glucose values observed at 0^h, 1^h, 2^h, 3^h.

Data set [7] can be described thus: Body weight of Psamomys Obesus. The class given is in vivo. The settings on record: Table VII; for Weight gain (gr) average: 0.1% in diet. Here is the method:
as §3
The above experiment was repeated with groups of young and old Psamomys and the body weight determined.

Data set [8] concerns liver total lipid, triglyceride and cholesterol. The data set can be described thus: 3H2O incorporation into liver lipids in vivo (total lipid, triglyceride, cholesterol). The arrangement: species or system rat. Conditions: n = 5. The protocol:
^3 H2 O incorporation into liver lipids in vico (in μmole/gr liver) was tested in rats fed for 3 days a single daily meal of a high carbohydrate diet containing 0.25% of the active compound of Example 4.
The procedure of Experiment I(b) was repeated for 5 days.
as §2

For the molecule `CC(C)(CCCCCCCCCCCCC(C)(C)CC(=O)O)CC(=O)O` [Example 5, 3,3,16,16-Tetramethyl-octadecane-1,18-dioic acid], in the data set on serum lipoprotein (Table V, 0.25% of diet, 3 days, non-treated 1.05), the “HDL (VLDL + LDL)” value came to 1.50. In addition, the LDL cholesterol with serum lipoprotein (Table V, 0.25% of diet, 3 days, non-treated 19.00) is 6.00 mg %. Besides, the VLDL cholesterol in the data set on serum lipoprotein (Table V, 0.25% of diet, 3 days, non-treated 23.00) came out at 10.00 mg %. The same molecule gave an HDL cholesterol in the data set on serum lipoprotein (Table V, 0.25% of diet, 3 days, non-treated 43.00) of 24.00 mg %. Also, the “Reduction in liver triglyceride content (FIG. 4)” value (“Reduction” below) in the data set with liver triglyceride was “reduction in liver triglyceride content”. In the data set with serum lipids [1] (Table IV, 0.25% of diet, 3 days ad libitum, n = 9, non-treated 48 ± 6), this molecule yielded a Serum triglycerides of 33 ± 3 mg %. Further, the Serum cholesterol in the data set with serum lipids [1] (Table IV, 0.25% of diet, 3 days ad libitum, n = 12, non-treated 80 ± 12) is listed as 40 ± 11 mg %.
With `CC(C)(CCCCCCCCCCC(C)(C)CC(=O)O)CC(=O)O` [Example 4, 3,3,14,14-Tetramethyl-hexadecane-1,16-dioic acid], the “Change in the serum lipoprotein profile” value in the data set on serum lipoprotein (summary, rats) is on record as “significant change in the serum lipoprotein profile”. Also, the “Oxidation of glucose, palmitate or acetate to CO2 in vivo” value in data set [2] is reported as “does not affect”. Besides, the Serum cholesterol is listed as 46 ± 7 mg % in the data set with serum lipids [3] (non-treated 65 ± 7); 38 ± 5 mg % with serum lipids [1] (Table III, 0.06% of diet, ad libitum 3 or 5 days, n = 5, non-treated 64 + 10); 32 ± 5 mg % in the data set with serum lipids [1] (Table III, 0.15% of diet, ad libitum 3 or 5 days, n = 5, non-treated 64 + 10); 31 ±3 mg % in the data set on serum lipids [1] (Table III, 0.25% of diet, ad libitum 3 or 5 days, n = 5, non-treated 64 + 10). The Serum triglycerides in the data set on serum lipids [3] (non-treated 205 ± 29) is 62 ± 15 mg %; in the data set with serum lipids [1] (Table III, 0.06% of diet, ad libitum 3 or 5 days, n = 5, non-treated 41 ± 6) it was 15 ± 4 mg %; with serum lipids [1] (Table III, 0.15% of diet, ad libitum 3 or 5 days, n = 5, non-treated 41 ± 6), 21 ± 4 mg %; with serum lipids [1] (Table III, 0.25% of diet, ad libitum 3 or 5 days, n = 5, non-treated 41 ± 6) it was 15 ± 4 mg %. The molecule further displayed an LD50 in the data set “LD50 in rats (p.o.)” of more than 7000 mg/kg. Also, in the data set with serum insulin, the “Serum insulin levels during the treatment period” value is on record as “lower than 40 uu/ml”. Also, in the data set with liver triglyceride, the “Reduction” value is given as “reduction in liver triglyceride content”. For the same molecule, the “Decrease in the triglyceride content of the liver” value in the data set on liver triglyceride (summary, rats) is reported as 30-50%. Besides, the “Effect on GT of non-diabetic Psamomys” value in [4] was “affects neither”. In addition, the “Effect on diabetes induced by steptozocin” value in [5] was “affects neither”. Moreover, the “Inhibition of in vivo incorporation of 3H2O into cholesterol in liver” value was 50% in data set [6] (100 mg/Kg body wt/day) and 80% in data set [6] (250 mg/Kg body wt/day). Further, the results for the “Inhibition of in vivo incorporation of 3H2O into neutral fat (diglycerides, triglycerides) in liver” value in data set [6] (100 mg/Kg body wt/day) and in [6] (250 mg/Kg body wt/day) were 50% and 80%, respectively. In data set [6] (adipose tissue), the “In vivo incorporation of 3H2O into neutral fat in adipose tissue” value was “block”. The “Correction of the GTT curve” value in the data set on glucose tolerance (0.1% in diet, 30-70 days) is recorded as “correction of the GTT curve in 5 or 6 test animals”. Besides, the “Sum of glucose values at 0, 1, 2, 3h, Treatment” value in the data set on glucose tolerance (Psamomys I, pretreatment 779, 1082) is 364; with glucose tolerance (Psamomys II, pretreatment 947, 980, 958), 442; with glucose tolerance (Psamomys III, pretreatment 790), 296 and 329 and 326; in the data set with glucose tolerance (Psamomys IV, pretreatment 992), 358 and 336 and 465; with glucose tolerance (Psamomys V, pretreatment 867), 434 and 257 and 388; with glucose tolerance (Psamomys VI, pretreatment 717), 555. For the same molecule, the “Sum of glucose values at 0, 1, 2, 3h, Elimination of Treatment” value is on record as 849 with glucose tolerance (Psamomys III), 1049 in the data set with glucose tolerance (Psamomys IV) and 470 with glucose tolerance (Psamomys V). Also, the “Diabetic trait after termination of the treatment” value with glucose tolerance (after termination of the treatment) is recorded as “revert to their original diabetic trait”. Also, the “Weight gain (gr) average” value in [7] (old animals, initial 254 ± 52, non-treated gain 11 ± 13) is reported as -26 ± 8 gr; in data set [7] (young animals, n = 7, initial 92 ± 19, non-treated gain 57 ± 33) it was 36 ± 12 gr. In addition, in data set [7] (young animals, individual values, non-treated 38, 38, 40, 55, 116), the “Weight gain (gr)” value was 25 gr and 29 gr and 31 gr and 32 gr and 33 gr and 38 gr and 62 gr. Further, the “Siblings' weight grain (gr)” value in data set [7] (young animals, siblings a, non-treated sibling 55) was 25 gr and 33 gr; in [7] (young animals, siblings b, non-treated sibling 116), 31 gr and 38 gr. Besides, the “Decrease in serum cholesterol” value with serum lipids [1] (summary, rats) came to 50%. The “Decrease in serum glycerides” value in the data set with serum lipids [1] (summary, rats) is on record as “up to 60%”. For the same molecule, the “3H2O incorporation into liver cholesterol” value is 0.8 ± 0.2 μmole/gr liver in [8] (Table I, 3 days, single daily meal, 0.25% in high carbohydrate diet, non-treated 2.7 ± 1.1) and 1.4 ± 0.4 μmole/gr liver in [8] (Table II, 5 days, procedure of Experiment I(b), non-treated 2.8 ± 0.8). The “3H2O incorporation into liver triglyceride” value in data set [8] (Table I, 3 days, single daily meal, 0.25% in high carbohydrate diet, non-treated 107 ± 21) stood at 19 ± 2 μmole/gr liver; in data set [8] (Table II, 5 days, procedure of Experiment I(b), non-treated 71 ± 12), 20 ± 7 μmole/gr liver. The “3H2O incorporation into liver total lipid” value in [8] (Table I, 3 days, single daily meal, 0.25% in high carbohydrate diet, non-treated 157 ± 34) is recorded as 47 ± 5 μmole/gr liver; in data set [8] (Table II, 5 days, procedure of Experiment I(b), non-treated 107 ± 18), 53 ± 13 μmole/gr liver.
For the molecule `CC(C)(CCCCCCCCCCC(C)(C)C(Br)C(=O)O)C(Br)C(=O)O` (centres unmarked) [Example 9, 2,15-Dibromo-3,3,14,14-tetramethyl-hexadecane-1,16-dioic acid], the “Reduction” value in the data set on liver triglyceride is “reduction in liver triglyceride content”.

Usually LD50 stands for the dose expected to kill half of the subjects tested.
